# Reference: patent US9357779B2 (priority 2010, dated 2016)
# Legend:
# Phytophthora infestans = assay type: in vivo; conditions: tomato plants, protective, active compound concentration 500 ppm, evaluation 7 days after inoculation
# [1] = for log P [a]: acidic range, pH 2.7, 0.1% aqueous formic acid/acetonitrile; for log P [a][d]: pH 2.7, major isomer; for log P [a][e]: pH 2.7, minor isomer
# Description: (§1) Calibration was carried out using unbranched alkan-2-ones (having from 3 to 16 carbon atoms) with known log P values (the log P values were determined by the retention times using linear interpolation between two successive alkanones).
# [2] = pH 2.7, log P [a], acidic range, pH 2.7, 0.1% aqueous formic acid/acetonitrile
# Description for physchem: as §1
smiles,measurement,setting,value
Cc1cccc(C(=O)/C=C/c2csc(C3CCN(C(=O)Cn4nc(C(F)F)cc4C(F)F)CC3)n2)c1 [Compound I-38],efficacy,Phytophthora infestans,95%
same,log P [a],[1],3.64^[a];
CC(C)(C)C(=O)/C=C/c1csc(C2CCN(C(=O)Cn3nc(C(F)F)cc3C(F)F)CC2)n1 [Compound I-47],efficacy,Phytophthora infestans,94%
same,log P [a],[1],3.45^[a]
"CCOc1ccccc1C(=O)C#Cc1csc(C2CCN(C(=O)Cn3nc(C(F)(F)F)cc3C)CC2)n1 [Compound I-11, 1-(2-Ethoxyphenyl)-3-[2-(1-{[5-methyl-3-(trifluoromethyl)-1H-pyrazol-1-yl]acetyl}piperidin-4-yl)-1,3-thiazol-4-yl]prop-2-yn-1-one]",chromatographic logP,physchem; pH 2.7,3.78
same,chromatographic logP,physchem; [2],3.76
Cc1cc(C(F)(F)F)nn1CC(=O)N1CCC(c2nc(C(=O)Cc3cccc4ccccc34)cs2)CC1 [Compound I-18],log P [a],[1],3.87^[a]
Cc1cc(C(F)(F)F)nn1CC(=O)N1CCC(c2nc(C(Cl)=CC(=O)c3ccccc3)cs2)CC1 (mixture of isomers) [Compound I-26],log P [a],[1],4^[a]
COc1cccc(OC)c1C(=O)/C=C/c1csc(C2CCN(C(=O)Cn3nc(C(F)F)cc3C(F)F)CC2)n1 [Compound I-39],efficacy,Phytophthora infestans,90%
same,log P [a],[1],3.04^[a]
"O=C(CCc1ccccc1)c1csc(C2CCNCC2)n1 [II-2, 4-[4-(3-Phenylpropanoyl)-1,3-thiazol-2-yl]piperidinium chloride]",chromatographic logP,physchem; pH 2.7,1.19
Cc1cc(C(F)(F)F)nn1CC(=O)N1CCC(c2nc(C#CC(=O)c3ccccc3Cl)cs2)CC1 [Compound I-5],log P [a],[1],3.79^[a]
Cc1cc(C(F)(F)F)nn1CC(=O)N1CCC(c2nc(C#CC(=O)c3ccccc3)cs2)CC1 [Compound I-1],log P [a],[1],3.58^[a]
Cc1cccc(CC(=O)c2csc(C3CCN(C(=O)Cn4nc(C(F)F)cc4C(F)F)CC3)n2)c1C [Compound I-59],log P [a],[1],3.71^[a]
CO/N=C(/Cc1cccc(C)c1C)c1csc(C2CCN(C(=O)Cn3nc(C(F)F)cc3C(F)F)CC2)n1 [Compound I-61],efficacy,Phytophthora infestans,95%
same,log P [a],[1],4.33^[a]
Cc1cc(C(F)(F)F)nn1CC(=O)N1CCC(c2nc(C#CC(=O)c3cccs3)cs2)CC1 [Compound I-9],log P [a],[1],3.29^[a]
"O=C(CC1CCCCC1)c1csc(C2CCN(C(=S)Cn3nc(C(F)F)cc3C(F)F)CC2)n1 [Compound I-58, 1-[2-(1-{2-[3,5-Bis(difluoromethyl)-1H-pyrazol-1-yl]ethanethioyl}piperidin-4-yl)-1,3-thiazol-4-yl]-2-cyclohexylethanone]",chromatographic logP,physchem; [2],4.63
same,chromatographic logP,physchem; pH 7.8,4.56
"CC(C)(C)OC(=O)N1CCC(c2nc(C(O)CCc3ccccc3)cs2)CC1 (stereo not shown) [XVI-1, tert-Butyl 4-[4-(1-hydroxy-3-phenylpropyl)-1,3-thiazol-2-yl]piperidine-1-carboxylate]",chromatographic logP,physchem; pH 2.7,3.79
"CON(C)C(=O)c1csc(C2CCN(C(=O)OC(C)(C)C)CC2)n1 [Compound V-1, tert-Butyl 4-{4-[methoxy(methyl)carbamoyl]-1,3-thiazol-2-yl}piperidine-1-carboxylate]",chromatographic logP,physchem; pH 2.7,2.4
O=C(/C=C/c1csc(C2CCN(C(=O)Cn3nc(C(F)F)cc3C(F)F)CC2)n1)c1cccc(F)c1 [Compound I-41],efficacy,Phytophthora infestans,95%
same,log P [a],[1],3.48^[a]
O=C(/C=C/c1csc(C2CCN(C(=O)Cn3nc(C(F)F)cc3C(F)F)CC2)n1)c1ccc(F)cc1 [Compound I-40],log P [a],[1],3.43^[a]
Cc1cc(C(F)(F)F)nn1CC(=O)N1CCC(c2nc(C#CC(=O)c3cccc4ccccc34)cs2)CC1 [Compound I-3],log P [a],[1],4.25^[a]
"CC(C)(C)OC(=O)N1CCC(c2nc(/C=C/C(=O)c3c(F)cccc3F)cs2)CC1 [IV-3, tert-Butyl 4-[4-[(1E)-3-(2,6-difluorophenyl)-3-oxoprop-1-en-1-yl]-1,3-thiazol-2-yl]piperidine-1-carboxylate]",chromatographic logP,physchem; pH 2.7,4.3
COc1ccc(C(=O)/C=C/c2csc(C3CCN(C(=O)Cn4nc(C(F)F)cc4C(F)F)CC3)n2)c(F)c1 [Compound I-48],efficacy,Phytophthora infestans,94%
same,log P [a],[1],3.45^[a]
Cc1cc(C(F)(F)F)nn1CC(=O)N1CCC(c2nc(C#CC(=O)c3ccc(Cl)cc3Cl)cs2)CC1 [Compound I-6],log P [a],[1],4.31^[a]
Cc1cc(C(F)(F)F)nn1CC(=O)N1CCC(c2nc(CCC(=O)c3ccccc3Cl)cs2)CC1 [Compound I-21],log P [a],[1],3.6^[a];
"Cc1cc(C(F)(F)F)nn1CC(=O)N1CCC(c2nc(C(=O)CCc3ccccc3)cs2)CC1 [Compound I-14, 1-[2-(1-{[5-Methyl-3-(trifluoromethyl)-1H-pyrazol-1-yl]acetyl}piperidin-4-yl)-1,3-thiazol-4-yl]-3-phenylpropan-1-one]",chromatographic logP,physchem; [2],3.64
Cc1cc(C(F)(F)F)nn1CC(=O)N1CCC(c2nc(C(=O)CC(C)(C)c3ccccc3)cs2)CC1 [Compound I-15],log P [a],[1],4.08^[a]
Cc1cc(C(F)(F)F)nn1CC(=O)N1CCC(c2nc(C(=O)Cc3ccccc3)cs2)CC1 [Compound I-16],efficacy,Phytophthora infestans,80%
same,log P [a],[1],3.36^[a]
Cc1ccc(C)c(NC(=O)N2CCC(c3nc(/C=C/C(=O)c4c(F)cccc4F)cs3)CC2)c1 [Compound I-23],efficacy,Phytophthora infestans,70%
same,log P [a],[1],3.56^[a]
COc1ccc(C(=O)C#Cc2csc(C3CCN(C(=O)Cn4nc(C(F)(F)F)cc4C)CC3)n2)cc1 [Compound I-7],log P [a],[1],3.54^[a]
"CC(C)(C)OC(=O)N1CCC(c2nc(C(=O)CCc3ccccc3)cs2)CC1 [IV-2, tert-Butyl 4-[4-(3-phenylpropanoyl)-1,3-thiazol-2-yl]piperidine-1-carboxylate]",chromatographic logP,physchem; pH 2.7,4.54
Cc1cc(C(F)(F)F)nn1CC(=O)N1CCC(c2nc(C#CC(=O)c3ccco3)cs2)CC1 [Compound I-10],log P [a],[1],2.92^[a]
C#CCOc1ccccc1C(C=Cc1csc(C2CCN(C(=O)Cn3nc(C(F)F)cc3C(F)F)CC2)n1)=NO (mixture of isomers) [Compound I-64],log P [a][d],[1],3.08^[a][d];
same,log P [a][e],[1],3.30^[a][e]
Cc1cc(C(F)(F)F)nn1CC(=O)N1CCC(c2nc(C(=O)CC3CCCCC3)cs2)CC1 [Compound I-17],log P [a],[1],4.13^[a];
COc1ccccc1C(=O)C#Cc1csc(C2CCN(C(=O)Cn3nc(C(F)(F)F)cc3C)CC2)n1 [Compound I-2],log P [a],[1],3.35^[a];
COc1ccccc1C(=O)C=C(Cl)c1csc(C2CCN(C(=O)Cn3nc(C(F)(F)F)cc3C)CC2)n1 (mixture of isomers) [Compound I-65],efficacy,Phytophthora infestans,93%
same,log P [a][d],[1],3.96^[a][d];
same,log P [a][e],[1],3.79^[a][e]
O=C(/C=C/c1csc(C2CCN(C(=O)Cn3nc(C(F)F)cc3C(F)F)CC2)n1)c1ccccc1 [Compound I-37],efficacy,Phytophthora infestans,95%
same,log P [a],[1],3.31^[a];
Cc1cc(C(F)(F)F)nn1CC(=O)N1CCC(c2nc(C(=O)Cc3ccccc3Br)cs2)CC1 [Compound I-13],log P [a],[1],3.67^[a];
Cc1cc(C(F)(F)F)nn1CC(=O)N1CCC(c2nc(C#CC(=O)C(C)(C)C)cs2)CC1 [Compound I-8],log P [a],[1],3.68^[a]
"Cc1cc(C(F)(F)F)nn1CC(=O)N1CCC(c2nc(C(=O)/C=C/c3c(F)cccc3F)cs2)CC1 [Compound I-12, (2E)-3-(2,6-Difluorophenyl)-1-[2-(1-{[5-methyl-3-(trifluoromethyl)-1H-pyrazol-1-yl]acetyl}piperidin-4-yl)-1,3-thiazol-4-yl]prop-2-en-1-one]",chromatographic logP,physchem; [2],3.83
O=C(/C=C/c1c(F)cccc1F)c1csc(C2CCN(C(=O)Cn3nc(C(F)F)cc3C(F)F)CC2)n1 [Compound I-62],log P [a],[1],3.68^[a];
"O=C(CC1CCCCC1)c1csc(C2CCNCC2)n1 [II-1, 4-[4-(Cyclohexylacetyl)-1,3-thiazol-2-yl]piperidinium chloride]",chromatographic logP,physchem; pH 2.7,1.35
"C#Cc1csc(C2CCN(C(=O)Cn3nc(C(F)(F)F)cc3C)CC2)n1 [XX-1, 1-[4-(4-Ethynyl-1,3-thiazol-2-yl)piperidin-1-yl]-2-[5-methyl-3-(trifluoromethyl)-1H-pyrazol-1-yl]ethanone]",chromatographic logP,physchem; pH 2.7,2.61
Cc1cc(C(F)(F)F)nn1CC(=O)N1CCC(c2nc(C#CC(=O)C3CCCCC3)cs2)CC1 [Compound I-4],log P [a],[1],4.15^[a]
"CCOc1ccccc1C(=O)CCc1csc(C2CCN(C(=O)Cn3nc(C(F)(F)F)cc3C)CC2)n1 [Compound I-20, 1-(2-Ethoxyphenyl)-3-[2-(1-{[5-methyl-3-(trifluoromethyl)-1H-pyrazol-1-yl]acetyl}piperidin-4-yl)-1,3-thiazol-4-yl]propan-1-one]",chromatographic logP,physchem; [2],3.7
same,chromatographic logP,physchem; pH 7.8,3.68
COc1ccccc1C(=O)CCc1csc(C2CCN(C(=O)Cn3nc(C(F)(F)F)cc3C)CC2)n1 [Compound I-19],log P [a],[1],3.34^[a]
Cc1cccc(C)c1C(=O)/C=C/c1csc(C2CCN(C(=O)Cn3nc(C(F)F)cc3C(F)F)CC2)n1 [Compound I-63],log P [a],[1],3.65^[a];
"CC(C)(C)OC(=O)N1CCC(c2nc(C(=O)CC3CCCCC3)cs2)CC1 [IV-1, tert-Butyl 4-[4-(cyclohexylacetyl)-1,3-thiazol-2-yl]piperidine-1-carboxylate]",chromatographic logP,physchem; pH 2.7,5.43
"C#Cc1csc(C2CCN(C(=O)OC(C)(C)C)CC2)n1 [VI-1, tert-Butyl 4-(4-ethynyl-1,3-thiazol-2-yl)piperidine-1-carboxylate]",chromatographic logP,physchem; pH 2.7,3.1
